Data from US20250388565A1, “ESTROGEN RECEPTOR ALPHA DEGRADERS AND METHODS OF USE THEREOF” (Relay Therapeutics, Inc., priority 2022, published 2025).

These compounds were tested against T1, ERα protein (HiBiT-tagged) in ESR1_HiBiT KI MCF7 cells (Homo sapiens, UniProt P03372) (assay: Nano Glo HiBiT Lytic Degradation Assay). Conditions: 6 hours with compound, 14-point dose response 1:3, bell-shape curve fit, half-maximal effect of first Hill model, read-out: MCF7 ESR1 HiBiT - (DC50).
T1 sequence (P03372 1-595): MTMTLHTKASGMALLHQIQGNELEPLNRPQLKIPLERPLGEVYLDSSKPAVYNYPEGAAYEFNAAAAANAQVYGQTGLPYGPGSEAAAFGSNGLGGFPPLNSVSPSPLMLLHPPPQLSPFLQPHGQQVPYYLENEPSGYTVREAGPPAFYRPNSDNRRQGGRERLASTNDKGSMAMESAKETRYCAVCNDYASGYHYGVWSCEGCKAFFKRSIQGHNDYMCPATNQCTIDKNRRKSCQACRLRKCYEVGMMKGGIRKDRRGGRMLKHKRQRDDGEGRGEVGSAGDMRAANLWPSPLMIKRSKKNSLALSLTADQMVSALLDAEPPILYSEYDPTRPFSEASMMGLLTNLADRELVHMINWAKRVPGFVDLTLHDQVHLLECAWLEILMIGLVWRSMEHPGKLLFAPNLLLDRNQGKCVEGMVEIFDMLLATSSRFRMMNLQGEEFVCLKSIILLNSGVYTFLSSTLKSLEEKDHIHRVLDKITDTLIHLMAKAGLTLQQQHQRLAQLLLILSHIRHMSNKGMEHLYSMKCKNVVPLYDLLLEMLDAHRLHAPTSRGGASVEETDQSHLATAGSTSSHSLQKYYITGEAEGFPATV
Format: cell-based
Method in brief: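 HiBiT-tagged endogenous ERα remaining in MCF7 knock-in cells was quantified by lytic luminescence after a 6 h treatment. DC50 values derive from a bell-shaped curve, taken at the first Hill component's half-maximal effect.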

| DC50 [nM] | Structure (SMILES) |
| --- | --- |
| 1.3 | O=C1CCC(c2ccc(N3CCC4(CCN(CC5CCN(c6ccc([C@@H]7c8ccc(O)cc8CC[C@@H]7c7ccccc7)cc6)CC5)CC4)CC3)cc2)C(=O)N1 (stereo partly drawn) [Compound I-180, 3-[4-[9-[[1-[4-[(1R,2S)-6-hydroxy-2-phenyl-tetralin-1-yl]phenyl]-4-piperidyl]methyl]-3,9-diazaspiro[5.5]undecan-3-yl]phenyl]piperidine-2,6-dione] |
| 2 | O=C1CCC(c2ccc(C3CC4(C3)CN(CC3CCN(c5ccc([C@@H]6c7ccc(O)cc7CC[C@@H]6c6ccccc6)cc5)CC3)C4)cc2)C(=O)N1 (stereo partly drawn) [Compound I-182, 3-(4-(2-((1-(4-((1R,2S)-6-hydroxy-2-phenyl-1,2,3,4-tetrahydronaphthalen-1-yl)phenyl)piperidin-4-yl)methyl)-2-azaspiro[3.3]heptan-6-yl)phenyl)piperidine-2,6-dione] |
| ≥ 10000 | O=C1CCC(c2cccc(N3CCC4(CCN(CC5CCN(c6ccc([C@@H]7c8ccc(O)cc8CC[C@@H]7c7ccccc7)cc6)CC5)CC4)CC3)c2)C(=O)N1 (stereo partly drawn) [Compound I-183, 3-(3-(9-((1-(4-((1R,2S)-6-hydroxy-2-phenyl-1,2,3,4-tetrahydronaphthalen-1-yl)phenyl)piperidin-4-yl)methyl)-3,9-diazaspiro[5.5]undecan-3-yl)phenyl)piperidine-2,6-dione] |
| 1.23 | Cn1nc(C2CCC(=O)NC2=O)c2ccc(N3CCN(CC4CCN(c5ccc([C@@H]6c7ccc(O)cc7CC[C@@H]6c6ccccc6)cc5)CC4)CC3)cc21 (stereo partly drawn) [Compound I-188, 3-(6-(4-((1-(4-((1R,2S)-6-hydroxy-2-phenyl-1,2,3,4-tetrahydronaphthalen-1-yl)phenyl)piperidin-4-yl)methyl)piperazin-1-yl)-1-methyl-1H-indazol-3-yl)piperidine-2,6-dione] |
| 2 | Cn1nc(C2CCC(=O)NC2=O)c2cccc(N3CCN(CC4CCN(c5ccc([C@@H]6c7ccc(O)cc7CC[C@@H]6c6ccccc6)cc5)CC4)CC3)c21 (stereo partly drawn) [Compound I-189, 3-(7-(4-((1-(4-((1R,2S)-6-hydroxy-2-phenyl-1,2,3,4-tetrahydronaphthalen-1-yl)phenyl)piperidin-4-yl)methyl)piperazin-1-yl)-1-methyl-1H-indazol-3-yl)piperidine-2,6-dione] |
| 0.4 | Cn1c(=O)n(C2CCC(=O)NC2=O)c2ccc(N3CCN(CC4CCN(c5ccc([C@@H]6c7ccc(O)cc7CC[C@@H]6c6ccccc6)cc5)CC4)CC3)cc21 (stereo partly drawn) [Compound I-190, 3-(5-(4-((1-(4-((1R,2S)-6-hydroxy-2-phenyl-1,2,3,4-tetrahydronaphthalen-1-yl)phenyl)piperidin-4-yl)methyl)piperazin-1-yl)-3-methyl-2-oxo-2,3-dihydro-1H-benzo[d]imidazol-1-yl)piperidine-2,6-dione] |
| 1.09 | Cn1c(=O)n(C2CCC(=O)NC2=O)c2cccc(N3CCN(CC4CCN(c5ccc([C@@H]6c7ccc(O)cc7CC[C@@H]6c6ccccc6)cc5)CC4)CC3)c21 (stereo partly drawn) [Compound I-191, 3-(4-(4-((1-(4-((1R,2S)-6-hydroxy-2-phenyl-1,2,3,4-tetrahydronaphthalen-1-yl)phenyl)piperidin-4-yl)methyl)piperazin-1-yl)-3-methyl-2-oxo-2,3-dihydro-1H-benzo[d]imidazol-1-yl)piperidine-2,6-dione] |
| 0.62 | O=C1CC[C@H](N2Cc3cc(N4CCN(CC5CCN(c6ccc([C@@H]7c8ccc(O)cc8C(F)(F)C[C@@H]7c7ccc(F)cc7)cc6)CC5)CC4)ccc3C2=O)C(=O)N1 [Compound I-192, (S)-3-(5-(4-((1-(4-((1R,2S)-4,4-difluoro-2-(4-fluorophenyl)-6-hydroxy-1,2,3,4-tetrahydronaphthalen-1-yl)phenyl)piperidin-4-yl)methyl)piperazin-1-yl)-1-oxoisoindolin-2-yl)piperidine-2,6-dione] |
| 0.41 | O=C1CC[C@H](N2Cc3cc(N4CCN(CC5CCN(c6ccc([C@@H]7c8ccc(O)cc8C(F)(F)C[C@@H]7c7ccccc7)cc6F)CC5)CC4)ccc3C2=O)C(=O)N1 [Compound I-194, (S)-3-(5-(4-((1-(4-((1R,2S)-4,4-difluoro-6-hydroxy-2-phenyl-1,2,3,4-tetrahydronaphthalen-1-yl)-2-fluorophenyl)piperidin-4-yl)methyl)piperazin-1-yl)-1-oxoisoindolin-2-yl)piperidine-2,6-dione] |
| 2 | O=C1CC[C@H](N2Cc3cc(N4CCN(CC5CCN(c6ccc([C@@H]7c8ccc(O)cc8C(F)(F)C[C@@H]7CC7CCCC7)cc6)CC5)CC4)ccc3C2=O)C(=O)N1 [Compound I-196, (3S)-3-[5-[4-[[1-[4-[(1R,2S)-2-(cyclopentylmethyl)-4,4-difluoro-6-hydroxy-tetralin-1-yl]phenyl]-4-piperidyl]methyl]piperazin-1-yl]-1-oxo-isoindolin-2-yl]piperidine-2,6-dione] |
| 0.49 | CC(C)C[C@H]1CC(F)(F)c2cc(O)ccc2[C@H]1c1ccc(N2CCC(CN3CCN(c4ccc5c(c4)CN([C@H]4CCC(=O)NC4=O)C5=O)CC3)CC2)cc1 [Compound I-197, (S)-3-(5-(4-((1-(4-((1R,2S)-4,4-difluoro-6-hydroxy-2-isobutyl-1,2,3,4-tetrahydronaphthalen-1-yl)phenyl)piperidin-4-yl)methyl)piperazin-1-yl)-1-oxoisoindolin-2-yl)piperidine-2,6-dione] |
| 0.93 | O=C1CC[C@H](N2Cc3cc(N4CCN(CC5CCN(c6ccc([C@@H]7c8ccc(O)cc8C(F)(F)C[C@@H]7C7CCCC7)cc6)CC5)CC4)ccc3C2=O)C(=O)N1 [Compound I-198, (S)-3-(5-(4-((1-(4-((1R,2R)-2-cyclopentyl-4,4-difluoro-6-hydroxy-1,2,3,4-tetrahydronaphthalen-1-yl)phenyl)piperidin-4-yl)methyl)piperazin-1-yl)-1-oxoisoindolin-2-yl)piperidine-2,6-dione] |
| 0.33 | O=C1CC[C@H](N2Cc3cc(N4CCN(CC5CCN(c6ccc([C@@H]7c8ccc(O)cc8C(F)(F)C[C@@H]7c7ccccc7)c(F)c6)CC5)CC4)ccc3C2=O)C(=O)N1 [Compound I-199, (S)-3-(5-(4-((1-(4-((1S,2S)-4,4-difluoro-6-hydroxy-2-phenyl-1,2,3,4-tetrahydronaphthalen-1-yl)-3-fluorophenyl)piperidin-4-yl)methyl)piperazin-1-yl)-1-oxoisoindolin-2-yl)piperidine-2,6-dione] |
| 0.3 | O=C1CC[C@H](N2Cc3cc(N4CCN(CC5CCN(c6ccc([C@@H]7c8ccc(O)cc8C(F)(F)C[C@@H]7c7ccccc7)cn6)CC5)CC4)ccc3C2=O)C(=O)N1 [Compound I-202, (3S)-3-[5-[4-[[1-[5-[(1S,2S)-4,4-difluoro-6-hydroxy-2-phenyl-tetralin-1-yl]-2-pyridyl]-4-piperidyl]methyl]piperazin-1-yl]-1-oxo-isoindolin-2-yl]piperidine-2,6-dione] |
| 0.23 | O=C1CC[C@H](N2Cc3cc(N4CCN(CC5CCN(c6ccc([C@@H]7c8ccc(O)cc8C(F)(F)C[C@@H]7c7ccccc7)nc6)CC5)CC4)ccc3C2=O)C(=O)N1 [Compound I-203, (S)-3-(5-(4-((1-(6-((1S,2S)-4,4-difluoro-6-hydroxy-2-phenyl-1,2,3,4-tetrahydronaphthalen-1-yl)pyridin-3-yl)piperidin-4-yl)methyl)piperazin-1-yl)-1-oxoisoindolin-2-yl)piperidine-2,6-dione] |
| 2 | CC(C)(O)[C@H]1CCc2cc(O)ccc2[C@H]1c1ccc(N2CCC(CN3CCN(c4ccc5c(c4)CN([C@H]4CCC(=O)NC4=O)C5=O)CC3)CC2)cc1 [Compound I-204, (S)-3-(5-(4-((1-(4-((1R,2S)-6-hydroxy-2-(2-hydroxypropan-2-yl)-1,2,3,4-tetrahydronaphthalen-1-yl)phenyl)piperidin-4-yl)methyl)piperazin-1-yl)-1-oxoisoindolin-2-yl)piperidine-2,6-dione] |
| ≥ 10000 | CC(C)(O)[C@@H]1CCc2cc(O)ccc2[C@@H]1c1ccc(N2CCC(CN3CCN(c4ccc5c(c4)CN([C@H]4CCC(=O)NC4=O)C5=O)CC3)CC2)cc1 [Compound I-219, (S)-3-(5-(4-((1-(4-((1S,2R)-6-hydroxy-2-(2-hydroxypropan-2-yl)-1,2,3,4-tetrahydronaphthalen-1-yl)phenyl)piperidin-4-yl)methyl)piperazin-1-yl)-1-oxoisoindolin-2-yl)piperidine-2,6-dione] |
| 14 | CC(C)C[C@@H]1CC(F)(F)c2cc(O)ccc2[C@@H]1c1ccc(N2CCC(CN3CCN(c4ccc5c(c4)CN([C@H]4CCC(=O)NC4=O)C5=O)CC3)CC2)cc1 [Compound I-220, (S)-3-(5-(4-((1-(4-((1S,2R)-4,4-difluoro-6-hydroxy-2-isobutyl-1,2,3,4-tetrahydronaphthalen-1-yl)phenyl)piperidin-4-yl)methyl)piperazin-1-yl)-1-oxoisoindolin-2-yl)piperidine-2,6-dione] |
